Legend:
Mouse Urinary Protein = target: T1, Mouse Urinary Protein (Mus musculus, UniProt P11588); assay: 13C NMR relaxation (T1, T2) of valine 13CHD2-labeled MUP in absence and presence of ligand; conditions: for T1, Change / T2, Change: Protein vs Bound Protein; for T1, Bound Protein / T2, Bound Protein: 298 K;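 as to T1, Bound Protein: unit milliseconds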;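 as to T2, Bound Protein: unit milliseconds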
T1 construct: made in house; host or cells: E. coli M15 cells with vector pqe30 MUP
T1 sequence (P11588 19-180): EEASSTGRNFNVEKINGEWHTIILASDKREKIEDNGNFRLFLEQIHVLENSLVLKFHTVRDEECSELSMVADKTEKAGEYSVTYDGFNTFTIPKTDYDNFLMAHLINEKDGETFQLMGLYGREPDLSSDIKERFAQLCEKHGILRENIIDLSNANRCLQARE
Procedure: A 15 mg sample of L-valine-α-D-^12CD(^13CHD2)2 labeled MUP was dissolved in 650 μL phosphate buffered saline (10 mM potassium phosphate; 200 mM sodium chloride), to which was added 50 μL deuterium oxide. ^13C Relaxation rates (R2 and R1) of ^13CHD2 groups were determined using pulse sequences as described in Ishima et al., J. Am. Chem. Soc. 121:11589-11590 (1999). Spectral parameters were as follows: spectral width in the ^13C dimension, 900 Hz; spectral width in the ^1H dimension, 5200 Hz; number of real data points in the ^13C dimension, 128; number of real points in the ^1H dimension, 1408; number of transients per t1 increment, 8; probe temperature, 298 K. Prior to two-dimensional Fourier transformation, free induction decays were apodized with cosine-bell windowing functions according to known methods.
The NMR analysis was then repeated following addition of the small molecule ligand 1 μL of isobutyl pyrazine or 1 μL of isopropyl pyrazine to separate solutions of MUP. The data shown below in Tables I and II and in FIG. 8 were obtained, clearly showing the changes in T1 and T2 values obtained on addition of these small molecule ligands.

Major Urinary Protein = target: T2, Major Urinary Protein (Mus musculus, UniProt P11588); assay: S2axis order parameters of valine methyl groups from 600 MHz 13C R1/R2 relaxation of valine-enriched MUP and its complexes; conditions: for S^2axis: MUP-ligand complex, 600 MHz, 30° C., pH 7.0
T2 construct: made in house; host or cells: E. coli M15 cells with vector pqe30 MUP
T2 sequence (P11588 19-180): T1 sequence (P11588 19-180)
Procedure: Samples of [^13C^γ1,^γ2HD2]-U-^2H valine enriched MUP both alone and complexed with 2-methoxy-3-isopropylpyrazine and 2-methoxy-3-isobutylpyrazine were prepared from a single sample at pH 7.0 and a protein concentration of 1 mM. A further sample of methyl-^13C, ^2H enriched MUP was prepared at pH 7.0 and a protein concentration of 0.5 mM. Longitudinal (R1) and transverse (R2) ^13C relaxation rates were determined essentially as described by Ishima et al., J. Am. Chem. Soc. 121:11589-11590, 1999. All spectra were recorded at a proton frequency of 600 MHz and a probe temperature of 30° C. R1 rates were determined with relaxation delay times of 16, 64, 128, 240, 400, 720, 1120, 1600, 2240 and 2880 milliseconds. R2 rates were determined with relaxation delay times of 16, 32, 48, 64, 96, 160, 192, 240 and 288 milliseconds, and an effective field strength of 2 kHz. Relaxation data were fit to a single exponential decay function I=I0exp(−tR), where I0 is the initial resonance intensity, t is the relaxation delay time and R is the relaxation rate (R1 or R2). Relaxation data were fitted to the Lipari-Szabo model-free spectral density of the form: J(ω)=S^2τm/(1+ω^2τ^2m)+(1−S^2)τi/(1+ω^2τi^2), where τi^−1=τM^−1+τe^−1, τM is the overall molecular tumbling correlation time and τe is the effective internal correlation time. See Lipari and Szabo, J. Am. Chem. Soc. 104:4546-4559, 1982. This equation is valid for fast internal motions, τe<<τM, under which conditions the order parameter for methyl CH dipolar relaxation is given by S^2=Saxis^2[P2(cos θH]^2. Saxis^2 is the order parameter of the methyl rotation axis and θH is the angle made by the axis and the CH bond vector. A global rotational correlation time of […] was used for these calculations, according to the previously reported value. Zidek et al., Nature Str. Biol. 6:1118-1121, 1999. Although the valine residues were perdeuterated at non-methyl positions, the protein was otherwise protonated, and dipolar relaxation due to these “external” protons is not negligible for ^13C relaxation. Thus, by analogy with the work of Ishima et al. J. Am. Chem. Soc. 123:6164-6171, 2001, the contribution of these external protons to ^13C R2 values was estimated at 25% from the X-ray coordinates of MUP. Consequently, measured ^13C R^2 rates were multiplied by 0.75 to account for these external dipolar relaxation processes.

MUP [1] = target: T3, MUP (Mus musculus, UniProt P11588); assay: 13C-1H HSQC spectra of valine-enriched MUP complexes; conditions: 13C-1H HSQC of complexes with valine-enriched MUP
T3 construct: made in house; host or cells: E. coli M15 cells with vector pqe30 MUP
T3 sequence (P11588 19-180): T1 sequence (P11588 19-180)

MUP [2] = target: T3, MUP; assay: Binding of small hydrophobic ligands to MUP (Kd)
[3] = valine methyl 59.HG1 (first line)
[4] = valine methyl 59.HG1 (second line)

T1, Change (Mouse Urinary Protein; 12.HG1): 35.219 milliseconds
T2, Change (Mouse Urinary Protein; 12.HG1): −13.500 milliseconds
T2, Change (Mouse Urinary Protein; 12.HG2): −16.796 milliseconds
T1, Change (Mouse Urinary Protein; 47.HG1): 9.550 milliseconds
T2, Change (Mouse Urinary Protein; 47.HG1): −16.055 milliseconds
T1, Change (Mouse Urinary Protein; 47.HG2): −82.069 milliseconds
T2, Change (Mouse Urinary Protein; 47.HG2): −12.196 milliseconds
T1, Change (Mouse Urinary Protein; 53.HG1): −98.976 milliseconds
T2, Change (Mouse Urinary Protein; 53.HG1): −10.901 milliseconds
T1, Change (Mouse Urinary Protein; 53.HG2): 17.840 milliseconds
T2, Change (Mouse Urinary Protein; 53.HG2): −13.096 milliseconds
T1, Change (Mouse Urinary Protein; 59.HG1 (first line)): −84.312 milliseconds
T2, Change (Mouse Urinary Protein; 59.HG1 (first line)): −22.344 milliseconds
T1, Change (Mouse Urinary Protein; 59.HG1 (second line)): 20.312 milliseconds
T2, Change (Mouse Urinary Protein; 59.HG1 (second line)): −3.040 milliseconds
T1, Change (Mouse Urinary Protein; 70.HG1): 379.619 milliseconds
T2, Change (Mouse Urinary Protein; 70.HG1): −65.766 milliseconds
T1, Change (Mouse Urinary Protein; 70.HG2): −324.602 milliseconds
T2, Change (Mouse Urinary Protein; 70.HG2): 33.869 milliseconds
T1, Change (Mouse Urinary Protein; 82.HG1): 1.260 milliseconds
T2, Change (Mouse Urinary Protein; 82.HG1): 7.645 milliseconds
T1, Change (Mouse Urinary Protein; 82.HG2): −33.349 milliseconds
T2, Change (Mouse Urinary Protein; 82.HG2): 22.399 milliseconds
contribution of valine side-chains to the entropy of binding (Mouse Urinary Protein; from relaxation data in the presence of ligand): do not contribute significantly
T1, Bound Protein (Mouse Urinary Protein; valine methyl 12.HG1): 1760.141 milliseconds
T2, Bound Protein (Mouse Urinary Protein; valine methyl 12.HG1): 166.608 milliseconds
T2, Bound Protein (Mouse Urinary Protein; valine methyl 12.HG2): 200.110 milliseconds
T1, Bound Protein (Mouse Urinary Protein; valine methyl 47.HG1): 1619.169 milliseconds
T2, Bound Protein (Mouse Urinary Protein; valine methyl 47.HG1): 171.287 milliseconds
T1, Bound Protein (Mouse Urinary Protein; valine methyl 47.HG2): 1072.690 milliseconds
T2, Bound Protein (Mouse Urinary Protein; valine methyl 47.HG2): 162.950 milliseconds
T1, Bound Protein (Mouse Urinary Protein; valine methyl 53.HG1): 2332.247 milliseconds
T2, Bound Protein (Mouse Urinary Protein; valine methyl 53.HG1): 174.600 milliseconds
T1, Bound Protein (Mouse Urinary Protein; valine methyl 53.HG2): 1382.566 milliseconds
T2, Bound Protein (Mouse Urinary Protein; valine methyl 53.HG2): 163.379 milliseconds
T1, Bound Protein (Mouse Urinary Protein; [3]): 1367.075 milliseconds
T2, Bound Protein (Mouse Urinary Protein; [3]): 200.992 milliseconds
T1, Bound Protein (Mouse Urinary Protein; [4]): 1502.825 milliseconds
T2, Bound Protein (Mouse Urinary Protein; [4]): 150.756 milliseconds
T1, Bound Protein (Mouse Urinary Protein; valine methyl 70.HG1): 1701.953 milliseconds
T2, Bound Protein (Mouse Urinary Protein; valine methyl 70.HG1): 186.968 milliseconds
T1, Bound Protein (Mouse Urinary Protein; valine methyl 70.HG2): 1488.130 milliseconds
T2, Bound Protein (Mouse Urinary Protein; valine methyl 70.HG2): 128.164 milliseconds
T1, Bound Protein (Mouse Urinary Protein; valine methyl 82.HG1): 913.641 milliseconds
T2, Bound Protein (Mouse Urinary Protein; valine methyl 82.HG1): 216.738 milliseconds
T1, Bound Protein (Mouse Urinary Protein; valine methyl 82.HG2): 703.150 milliseconds
T2, Bound Protein (Mouse Urinary Protein; valine methyl 82.HG2): 201.054 milliseconds
changes in Saxis^2 of the six valine residues in MUP upon binding (Major Urinary Protein): only minor changes
S^2axis (Major Urinary Protein; Val-12 C^γ1): 0.86
S^2axis (Major Urinary Protein; Val-12 C^γ2): 0.66
S^2axis (Major Urinary Protein; Val-47 C^γ1): 0.86
S^2axis (Major Urinary Protein; Val-47 C^γ2): 0.88
S^2axis (Major Urinary Protein; Val-53 C^γ1): 0.78
S^2axis (Major Urinary Protein; Val-53 C^γ2): 0.86
S^2axis (Major Urinary Protein; Val-59 C^γ1): 0.63
S^2axis (Major Urinary Protein; Val-59 C^γ2): 0.90
S^2axis (Major Urinary Protein; Val-70 C^γ1): 0.81
S^2axis (Major Urinary Protein; Val-70 C^γ2): [1.03]
S^2axis (Major Urinary Protein; Val-82 C^γ1): 0.53
S^2axis (Major Urinary Protein; Val-82 C^γ2): 0.53
contribution of valine side-chains to the entropy of binding (Major Urinary Protein; from computations of Saxis^2 values, free protein and complexes): do not contribute significantly
shift perturbations of Val 82 γ1 and γ2 correlations (MUP [1]): Significant shift perturbations
Kd (MUP [2]): 80 nM
Compound: COc1nccnc1CC(C)C [2-methoxy-3-isobutylpyrazine]

— patent US20060154323A1, “Method for obtaining dynamic and structural data pertaining to proteins and protein/ligand complexes” (ProSpect Pharma, priority 2002, published 2006)
